One experiment concerns claudin-14 protein. Description: claudin-14 immunostaining, tight junction localization in mouse kidney sections. The class given is in vivo. To be noted: 30 mg/kg BW−1. How it is done:
For viewing claudin localization in the kidney, fresh cryostat sections (10 μm) were fixed with cold methanol at −20° C., followed by blocking with PBS containing 10% FBS, incubation with primary antibody (1:300) and FITC-labeled secondary antibody (1:200). After washing with PBS, slides were mounted with Mowiol (Calbiochem). Epifluorescence images were taken with a Nikon 80i photomicroscope equipped with a DS-QilMc digital camera. All images were converted to TIFF format and arranged using Photoshop CS4 (Adobe).
For viewing claudin localization in the kidney, fresh cryostat sections (10 μm) were fixed with cold methanol at −20° C., followed by blocking with PBS containing 10% FBS, incubation with primary antibody (1:300) and FITC-labeled secondary antibody (1:200). After washing with PBS, slides were mounted with Mowiol (Calbiochem). Epifluorescence images were taken with a Nikon 80i photomicroscope equipped with a DS-Qi1Mc digital camera. All images were converted to TIFF format and arranged using Photoshop CS4 (Adobe).

A short description of experiment [1]: 1 hr renal clearance measurements (FITC-inulin), plasma and urine electrolytes. The class given is in vivo, mouse. Here is the method: (§1) The method for performing renal clearance measurements in the mouse has been described by Hou et al., (2007; 2009). Mice were anesthetized by i.p. injection of Inactin (Sigma; 100 mg/kg). The jugular vein was catheterized for i.v. infusion of 0.9% saline at 2 μL/min, with 1% FITC-inulin included in the infusate. After an equilibration period of 60 min, renal clearance measurements were carried out for a 60 min period. Urine was collected under mineral oil, and 30 μL blood sample was taken at hourly intervals. Urine and plasma Ca^2+ and Mg^2+ concentrations were measured by atomic flame absorption spectrophotometer (PerkinElmer). Urine and plasma FITC-inulin levels were measured in 100 mM HEPES buffer (pH7.0) with fluorescence spectrophotometer (BioTek). The fractional excretion of electrolytes was calculated using the following equation FEion=V×Uion/(GFR×Pion), where GFR was calculated according to the clearance rate of FITC-inulin (GFR=V×Uinulin/Pinulin).
as §1, with “Hou, J.,” for “Hou”, “2007 and Hou, J., et al., 2009.” for “(2007; 2009).”, “(Sigma:” for “(Sigma;”, “Ca^++” for “Ca^2+”, “Mg^++” for “Mg^2+”, “(PerkinEhner).” for “(PerkinElmer).”

The subject of a further experiment is pri-miR-9-3. Description: pri-miR-9-3 transcript levels in TALH of treated mouse kidneys (real-time PCR). The class given is in vivo. To be noted: 30 mg/kg BW−1; 2 hrs or 8 hrs. The text has this: Total RNA including microRNA was extracted using Trizol (Invitrogen). Cellular mRNA was reverse transcribed using the Superscript-III kit (Invitrogen), followed by real-time PCR amplification using SYBR Green PCR Master Mix (Bio-Rad) and Eppendorf Realplex2S system. The design of claudin-14 primers was described above. The design of pri-miRNA primers was according to Ma et al., (2010). Results were expressed as 2^−ΔCt values with ΔCT=Ctgene−Ctβ-actin.
To measure the transcriptional level for microRNA gene in vivo in the kidney, the inventors designed primers (see Methods; Table 2) to amplify the pri-miRNA molecule, the original transcript for microRNA gene that had not yet been subjected to any nuclear or cellular processing. Because both miR-9 and miR-374 had broader localization profiles along the nephron, the inventors isolated the TALH tubular cells for pri-miRNA analyses from the mouse kidney described elsewhere in this study. WT mice (strain: C57BL/6) were treated with NPS2143 or cinacalcet as described for claudin-14 analyses and assayed for pri-miRNA levels in isolated TALH cells at 2 hrs and 8 hrs respectively. […] NPS2143 and cinacalcet also profoundly regulated pri-miR-374. […]
Total RNA including microRNA was extracted using Trizol (Invitrogen). […] Results were expressed as 2^−ΔCt values with ΔCT=Ctgene−Ctβ-actin.

The test system of the next experiment is claudin-14 promoter. The experiment is described as follows: lacZ reporter of endogenous claudin-14 promoter activity in claudin-14+/lacZ mice. Type of experiment: in vivo, mouse. Here is the method:
The inventors also sought for alternative mechanisms for claudin-14 gene regulation. Because the claudin-14 KO mouse was generated with a lacZ reporter gene replacing the last exon of claudin-14 gene (including the coding region and 3″-UTR) (Ben-Yosef et al., 2003), the expression of lacZ gene would provide a faithful measurement for endogenous claudin-14 promoter activity regardless of any microRNA based regulation. The claudin-14^+/lacZ mice were treated with cinacalcet or NPS2143 as described for WT mice.
The inventors explored alternative mechanisms for claudin-14 gene regulation. Because the claudin-14 KO mouse was generated with a lacZ reporter gene replacing the last exon of claudin-14 gene (including the coding region and 3′-UTR; Ben-Yosef, T., et al., 2003) the expression of lacZ gene would provide a faithful measurement for endogenous claudin-14 promoter activity regardless of any microRNA based regulation. The claudin-14^+/lacZ mice were treated with cinacalcet or NPS2143 as described for WT mice.

[2] abbreviates: WT + CsA (25 mg/kg BW−1 per day, 6 days), 2 hr, Veh = CsA alone.
Setting [3] is: WT, 2 hr, single dose 30 mg/kg BW−1.
[4] abbreviates: WT, 2 hr, single dose 30 mg/kg BW−1, 30 mg/kg.
Setting [5] is: WT, 2 hr, single dose 30 mg/kg BW−1, listed as Cina, 30 mg/kg.
The mark [6] stands for this setting: WT, 8 hr, single dose 30 mg/kg BW−1.
The mark [7] stands for this setting: claudin-14 KO, 2 hr, single dose 30 mg/kg BW−1.
The mark [8] stands for this setting: WT, 2 hr, single dose 30 mg/kg BW−1, listed as NPS, 30 mg/kg.

Data on 3 compounds can be found in US20140242609A1, “Diagnosis and treatment of kidney stones, methods and compositions therefor” (Washington University, priority 2013, published 2014).

The structures appear in SMILES notation. “Also recorded” adds a separate entry of the source.

For the compound `C[C@@H](NCCCc1cccc(C(F)(F)F)c1)c1cccc2ccccc12` [cinacalcet], the “claudin-14 staining in tight junctions of TALH tubules” value with claudin-14 protein is recorded as “profoundly upregulated claudin-14 protein levels in the tight junction”. In addition, in experiment [1] (setting [2]), the ECa was found to be 0.79 ± 0.07 ug/hr · g, the “FECa (fractional excretion of Ca++)” value was found to be 1.93 ± 0.20 %, the “FEMg (fractional excretion of Mg++)” value was determined as 14.47 ± 1.13% and the “PCa (plasma Ca++ concentration)” value was determined as 8.09 ± 0.32 mg/dL. Further, the “PMg (plasma Mg++ concentration)” value in experiment [1] (setting [2]) was 1.58 ± 0.04 mg/dL. Besides, in experiment [1] (setting [3]), the ECa came to 1.33 ± 0.13 ug/hr · g, the EMg was determined as 2.32 ± 0.26 ug/hr · g, the “FEMg (fractional excretion of Mg++)” value was 28.14 ± 2.93 % and the “PMg (plasma Mg++ concentration)” value was found to be 1.96 ± 0.04 mg/dL. Moreover, in experiment [1] (setting [4]), the “FECa (fractional excretion of Ca++)” value is 3.82±0.52% and the “PCa (plasma Ca++ concentration)” value is 8.44 ± 0.27 mg/dL. Also, in experiment [1] (setting [5]), the “FECa (fractional excretion of Ca++)” value was 3.82 ± 0.52 % and the “PCa (plasma Ca++ concentration)” value came to 8.44 ± 0.27 mg/dL. Further, in experiment [1] (setting [6]), the ECa is listed as 0.22 ± 0.02 ug/hr · g, the EMg came to 1.25 ± 0.09 ug/hr · g, the “FECa (fractional excretion of Ca++)” value came out at 0.88 ± 0.14% and the “FEMg (fractional excretion of Mg++)” value worked out at 18.80 ± 1.48%. Besides, in experiment [1] (setting [6]), the “PCa (plasma Ca++ concentration)” value was 9.58 ± 0.21 mg/dL and the “PMg (plasma Mg++ concentration)” value was determined as 2.44 ± 0.16 mg/dL. Further, in experiment [1] (setting [7]), the ECa is 0.31 ± 0.03 ug/hr · g, the EMg is listed as 1.12 ± 0.03 ug/hr · g, the “FECa (fractional excretion of Ca++)” value is given as 1.08 ± 0.26% and the “FEMg (fractional excretion of Mg++)” value turned out to be 12.35 ± 2.21%. In experiment [1] (setting [7]), the “PCa (plasma Ca++ concentration)” value amounted to 8.47 ± 0.09 mg/dL and the “PMg (plasma Mg++ concentration)” value stood at 2.64 ± 0.10 mg/dL. Also, in experiment [1] (cyclosporine-A pre-treated animals, 2 hrs), the “cinacalcet induced hypercalciuria, level higher than vehicle” value is listed as 1.93 fold. Moreover, the “pri-miR-9-3 level, change” value in the experiment on pri-miR-9-3 is given as “Neither pri-miR-9-2 (FIG. 12B) nor pri-miR-9-3 level (FIG. 12C) was significantly altered; also recorded: Neither pri-miR-9-2 (FIG. 29B) nor pri-miR-9-3 level (FIG. 29C) was significantly altered”. For the same compound, the “lacZ mRNA levels” value in the experiment on claudin-14 promoter (claudin-14+/lacZ mouse kidneys, single-dose 30 mg/kg BW−1, 2 hrs) is reported as “no change”. Also, the β-galactosidase activity entry with claudin-14 promoter (isolated TALH cells of claudin-14+/lacZ mice, single-dose 30 mg/kg BW−1, 2 hrs) is on record as “no change”.

As to `CC(C)(Cc1ccc2ccccc2c1)NC[C@@H](O)COc1cccc(Cl)c1C#N` [NPS2143], the “claudin-14 staining in tight junctions of TALH tubules” value with claudin-14 protein was “reduced the staining signal for claudin-14 to punctate foci; also recorded: reduced the staining signal for claudin-14 to punctuate foci”. Besides, in experiment [1] (setting [2]), the ECa was determined as 0.38 ± 0.02 ug/hr · g, the EMg is listed as 0.80 ± 0.19 ug/hr · g, the “FECa (fractional excretion of Ca++)” value was 0.95 ± 0.14% and the “FEMg (fractional excretion of Mg++)” value is reported as 11.96 ± 2.27%. For the same compound, in experiment [1] (setting [2]), the “PCa (plasma Ca++ concentration)” value is 10.50 ± 0.18 mg/dL and the “PMg (plasma Mg++ concentration)” value was determined as 1.67 ± 0.02 mg/dL. Moreover, in experiment [1] (setting [3]), the ECa is recorded as 0.06 ± 0.01 ug/hr · g, the EMg stood at 1.04 ± 0.06 ug/hr · g, the “FEMg (fractional excretion of Mg++)” value was determined as 7.59 ± 0.32 % and the “PMg (plasma Mg++ concentration)” value amounted to 2.74 ± 0.15 mg/dL. In experiment [1] (setting [4]), the “FECa (fractional excretion of Ca++)” value is reported as 0.09±0.01% and the “PCa (plasma Ca++ concentration)” value was found to be 11.15 ± 0.21 mg/dL. In experiment [1] (setting [8]), the “FECa (fractional excretion of Ca++)” value is given as 0.09 ± 0.01 % and the “PCa (plasma Ca++ concentration)” value came to 11.15 ± 0.21 mg/dL. In addition, in experiment [1] (setting [6]), the ECa was found to be 0.25 ± 0.04 ug/hr · g, the EMg is 1.41 ± 0.18 ug/hr · g, the “FECa (fractional excretion of Ca++)” value was found to be 0.58 ± 0.11% and the “FEMg (fractional excretion of Mg++)” value amounted to 14.88 ± 2.63%. Besides, in experiment [1] (setting [6]), the “PCa (plasma Ca++ concentration)” value was determined as 10.63 ± 0.43 mg/dL and the “PMg (plasma Mg++ concentration)” value is 2.37 ± 0.09 mg/dL. For the same compound, in experiment [1] (setting [7]), the ECa is 0.25 ± 0.09 ug/hr · g, the EMg turned out to be 1.02 ± 0.12 ug/hr · g, the “FECa (fractional excretion of Ca++)” value came out at 0.74 ± 0.26% and the “FEMg (fractional excretion of Mg++)” value worked out at 10.71 ± 2.16%. In experiment [1] (setting [7]), the “PCa (plasma Ca++ concentration)” value was 10.22 ± 0.30 mg/dL and the “PMg (plasma Mg++ concentration)” value is 2.88 ± 0.12 mg/dL. Further, the “pri-miR-9-3 level, change” value in the experiment on pri-miR-9-3 was “Neither pri-miR-9-2 (FIG. 12B) nor pri-miR-9-3 level (FIG. 12C) was significantly altered; also recorded: Neither pri-miR-9-2 (FIG. 29B) nor pri-miR-9-3 level (FIG. 29C) was significantly altered”.

As to `O=C(CCCCCCC(=O)Nc1ccccc1)NO` [SAHA, Suberanilohydroxamic acid], the “lacZ mRNA levels” value in the experiment on claudin-14 promoter (25 mg/kg BW−1, 4 hrs) is “no significant change”.
